Experimental data from patent US6380237B1, “Diphenylimidazolines” (Bayer Aktiengesellschaft, priority 1998, dated 2002).

Tests used:
[1] = tested on: mustard beetle larvae (Phaedon cochleariae); assay: Phaedon larvae test; format: in vivo; conditions: active compound concentration of 0.1%, after 7 days, dipped cabbage leaves
Method: Phaedon larvae test Solvent: 7 parts by weight of dimethylfornamide Emulsifier: 1 part by weight of alkylaryl polyglycol ether To produce a suitable preparation of active compound, 1 part by weight of active compound is mixed with the stated amount of solvent and emulsifier, and the concentrate is diluted with water to the desired concentration. Cabbage leaves (Brassica oleracea) are treated by being dipped into the preparation of active compound of the desired concentration and populated with mustard beetle larvae (Phaedon cochleariae) while the leaves are still moist.

[2] = tested on: caterpillars of the army worm (Spodoptera frugiperda); assay: Spodoptera frugiperda test; format: in vivo; conditions: active compound concentration of 0.1%, after 7 days, dipped cabbage leaves
Method: Spodoptera frugiperda test
(§1) Solvent: 7 parts by weight of dimethylformamide
(§2) Emulsifier: 1 part by weight of alkylaryl polyglycol ether
To prepare a suitable preparation of active compound, 1 part by weight of active compound is mixed with the stated amount of solvent and emulsifier, and the concentrate is diluted with water to the desired concentration.
Cabbage leaves (Brassica oleracea) are treated by being dipped into the preparation of active compound of the desired concentration and populated with caterpillars of the army worm (Spodoptera frugiperda) while the leaves are still moist.
After the desired period of time, the kill in % is determined. 100% means that all caterpillars have been killed; 0% means that none of the caterpillars have been killed.

[3] = tested on: all stages of the greenhouse red spider mite (Tetranychus urticae); assay: Tetranychus test (OP-resistant/dip treatment); format: in vivo
Method: Tetranychus test (OP-resistant/dip treatment)
as §1, §2
To produce a suitable preparation of active compound, 1 part by weight of active compound is mixed with the stated amount of solvent and emulsifier, and the concentrate is diluted with emulsifier-containing water to the desired concentration.
Bean plants (Phaseolus vulgaris) which are heavily infested by all stages of the greenhouse red spider mite (Tetranychus urticae) are dipped into a preparation of active compound of the desired concentration.
After the desired period of time, the effect in % is determined. 100% means that all spider mites have been killed, 0% means that none of the spider mites have been killed.

Lucilia cuprina larvae = assay: Blowfly larvae test/development-inhibitory action; format: in vivo; conditions: active compound concentration of 100 ppm; 100% means that none of the flies have hatched
Method: Blowfly larvae test/development-inhibitory action
Test animals: Lucilia cuprina larvae
Solvent: Dimethylsulfoxide
20 mg of active compound are dissolved in 1 ml of dimethyl suiphoxide, and more dilute concentrations are prepared by dilution with dist. water.
Approximately 20 Lucilia cuprina larvae are introduced into a test tube which contains approximately 1 cm^3 of horse meat and 0.5 ml of the active compound preparation to be tested. After 24 and 48 hours, the efficacy of the preparation of active compound is determined. The test tubes are transferred into a beaker with sand-covered bottom. After a further 2 days, the test tubes are removed and the pupae are counted.
The effect of the preparation of active compound is assessed by the number of the flies which have hatched after 1.5 times the development time of an untreated control. 100% means that none of the flies have hatched; 0% means that all flies have hatched normally.

[4] = active compound concentration of 0.01%, after 7 days, dipped bean plants

Row | melting point [°C] | SMILES | kill [1] [%] | kill [2] [%] | kill [3, 4] [%] | kill ([3]; 168 h) [%] | efficacy (Lucilia cuprina larvae) [%]
1 | – | CCOCN1C(c2c(F)cccc2F)=NCC1c1ccc(-c2ccc(OC(F)(F)F)cc2)cc1 (stereo not drawn) [Example I-6b, 3-ethoxymethyl-4-(4′-trifluoromethoxy-4-biphenylyl)-2-(2,6-difluorophenyl)-4,5-di-hydro-3H-imidazole] | 100 | – | – | – | –
2 | – | N#CN1C(c2c(F)cccc2F)=NCC1c1ccc(-c2ccc(OC(F)(F)F)cc2)cc1 (stereo not drawn) [Example I-5b, 3-cyano-4-(4′-trifluoromethoxy-4-biphenylyl)-2-(2,6-difluorophenyl)-4,5-dihydro-3H-imidazole] | 100 | 100 | 100 | – | –
3 | 93 to 95 | NC(=S)N1CC(c2ccc(-c3ccc(OC(F)(F)F)cc3)cc2)N=C1c1c(F)cccc1F (stereo not drawn) [Example I-8, 4-(4′-trifluoromethoxy4-biphenylyl)-2-(2,6-difluorophenyl)-1-thiocarbamoyl-4,5-dihydro-1H-imidazole] | 100 | 100 | 95 | – | –
4 | – | CCOC(=O)N1CC(c2ccc(-c3ccc(OC(F)(F)F)cc3)cc2)N=C1c1ccccc1Cl (stereo not drawn) [Example I-4, 2-(2-chlorophenyl)-1-ethoxycarbonyl-4-(4′-trifluormethoxy-4-biphenylyl)-4,5-dihydro-1H-imidazole] | 100 | 100 | – | – | –
5 | 123 to 124 | N#CN1CC(c2ccc(-c3ccc(OC(F)(F)F)cc3)cc2)N=C1c1c(F)cccc1F (stereo not drawn) [Example I-5a, 1-cyano-4-(4′-trifluoromethoxy-4-biphenylyl)-2-(2,6-difluorophenyl)-4,5-dihydro-1H-imidazole] | 100 | 100 | 100 | – | –
6 | – | CCOCN1CC(c2ccc(-c3ccc(OC(F)(F)F)cc3)cc2)N=C1c1c(F)cccc1F (stereo not drawn) [Example I-6a, 1-ethoxymethyl-4-(4′-trifluoromethoxy-4-biphenylyl)-2-(2,6-difluorophenyl)-4,5-di-hydro-1H-imidazole] | 100 | 100 | 100 | – | –
7 | – | CC(=O)N1CC(c2ccc(-c3ccc(OC(F)(F)F)cc3)cc2)N=C1c1c(F)cccc1F (stereo not drawn) [Example I-7a, 1-acetyl-4-(4′-trifluoromethoxy-4-biphenylyl)-2-(2,6-difluorophenyl)-4,5-dihydro-1H-imidazole] | 90 | 100 | 100 | – | –

Row | SMILES | melting point [°C] | kill [1] [%] | kill [2] [%] | kill [3, 4] [%] | kill ([3]; 168 h) [%] | efficacy (Lucilia cuprina larvae) [%]
8 | CCOC(=O)N1CC(c2ccc(-c3ccc(OC(F)(F)F)cc3)cc2)N=C1c1c(F)cccc1F (stereo not drawn) [Example I-3, 1-ethoxycarbonyl4-(4′-trifluoromethoxy-4-biphenylyl)-2-(2,6-difluoro-phenyl)-4,5-dihydro-1H-imidazole] | 105 to 107 | – | 100 | – | 100 | 100
